What was measured:
[1] = Pilot randomized placebo-controlled study of weight loss in obese patients (BMI>30); assay type: in vivo, human
Excerpt: (§1) Patients were followed for up to six months. The primary endpoint was weight loss at the end of the study. Laboratory assessments including a basic metabolic panel, liver enzymes, lipid profile, and HbA1c (glucose testing) were obtained pre- and post-treatment.
(§2) Baseline demographic characteristics included median age of 45 (range 18-62) years, gender (73% female) average starting weight of 238.5±77.1 lbs and BMI of 38.8±9.7. Common co-morbidities included GERD (37%), hypertension (32%), diabetes (19%), and lipid disorders (14%). […] Weight loss in the rifaximin group was statistically significant (P<0.03) when compared to baseline weight. Diabetics tended to lose more weight (−6.1 lbs), and patients with underlying lipid disorders lost the least (−0.7 lbs).

[2] = Laboratory assessments (lipid profile) pre- and post-treatment in obese patients; assay type: in vivo, human; conditions: RFX vs. PBO, p<0.04; 550 mg twice daily for 20 days
Excerpt: as §1, §2

[3] = tested on: species of Staphylococcus, Streptococcus, Enterococcus, and Enterobacteriaceae; conditions: in vitro data; cited from earlier work

- Triglycerides difference pre- to post-treatment [2]: +15.9
SMILES: COC1/C=C/OC2(C)Oc3c(C)c(O)c4c(O)c(c5c(nc6cc(C)ccn65)c4c3C2=O)NC(=O)/C(C)=C\C=C\C(C)C(O)C(C)C(O)C(C)C(OC(C)=O)C1C (stereo not shown) [RFX]
- mean weight lost ([1]; first study visit following treatment, 550 mg twice daily for 20 days, patients with BMI>30): 1.1 lbs
- mean weight lost at the end of the study ([1]; mean follow-up of 4.9 months, 550 mg twice daily for 20 days, P<0.03 compared to baseline weight): 4.5 lbs
- weight loss as compared to placebo patients ([1]; obese patients (BMI>30), pilot study): greater weight loss
- weight change in diabetics ([1]; subgroup: diabetics, 550 mg twice daily for 20 days): −6.1 lbs
- weight change in patients with underlying lipid disorders ([1]; subgroup: underlying lipid disorders, 550 mg twice daily for 20 days): −0.7 lbs
- antibacterial activity in vitro [3]: active
